Data reported in ChEMBL document CHEMBL3351298, “Design, synthesis and evaluation of novel tacrine-(β-carboline) hybrids as multifunctional agents for the treatment of Alzheimer's disease” (Bioorg Med Chem, 2014).
Activity calls are given as the source filed them. No cut-off for these calls is given here.

Assays:
in vitro = settings: PAMPA
Cholinesterase = Cholinesterase (Equus caballus, UniProt P81908)
Description: Inhibition of equine serum BChE using S-butyrylthiocholine chloride as substrate incubated for 6 mins by spectrophotometric method

[1] = biological target: Amyloid-beta precursor protein (Homo sapiens) (UniProt P05067); test: Inhibition of amyloid beta (1 to 42) (unknown origin) self-induced aggregation at 20 uM after 46 to 48 hrs by thioflavin-T based fluorometric assay
Acetylcholinesterase [2] = biological target: Acetylcholinesterase (Electrophorus electricus, UniProt O42275)
Description: Inhibition of electric eel AChE using acetylthiocholine iodide as substrate incubated for 6 mins by spectrophotometric method

[3] = Retention time of the compound using CH3OH/H2O (0.1% Formic acid), 60% (v/v) of CH3OH gradient by HPLC analysis; format: physicochemical
Acetylcholinesterase [4] = biological target: Acetylcholinesterase (Homo sapiens, UniProt P22303)
Description: Inhibition of human AChE using acetylthiocholine iodide as substrate incubated for 6 mins by spectrophotometric method

[5] = Metal chelating activity of the compound assessed as Cu2+ complex formation at 25 uM by UV-vis spectrometry; format: physicochemical
[6] = biological target: Acetylcholinesterase (Electrophorus electricus) (UniProt O42275); test: Mixed-type of inhibition in electric eel AChE by Lineweaver-Burk plot analysis
[7] = Neuroprotective activity against H2O2-induced oxidative damage in rat PC12 cells assessed as increase in cell viability at 10 uM after 24 hrs by MTT assay; format: functional, PC-12
[8] = Retention time of the compound using CH3OH/H2O(0.1% Formic acid), 45% (v/v) of CH3OH gradient by HPLC analysis; format: physicochemical
PC-12 = test: Neuroprotective activity against H2O2-induced oxidative damage in rat PC12 cells assessed as increase in cell viability at 0.4 to 10 uM after 24 hrs by MTT assay; format: functional, cell-based
[9] = Retention time of the compound using CH3OH/H2O (0.1% Formic acid), 65% (v/v) of CH3OH gradient by HPLC analysis; format: physicochemical
[10] = Retention time of the compound using CH3OH/H2O(0.1% Formic acid), 70% (v/v) of CH3OH gradient by HPLC analysis; format: physicochemical
[11] = Retention time of the compound using CH3OH/H2O(0.1% Formic acid), 55% (v/v) of CH3OH gradient by HPLC analysis; format: physicochemical
[12] = Retention time of the compound using CH3OH/H2O(0.1% Formic acid), 75% (v/v) of CH3OH gradient by HPLC analysis; format: physicochemical

Acetylcholinesterase (Homo sapiens, UniProt P22303), sequence (P22303 whole entry): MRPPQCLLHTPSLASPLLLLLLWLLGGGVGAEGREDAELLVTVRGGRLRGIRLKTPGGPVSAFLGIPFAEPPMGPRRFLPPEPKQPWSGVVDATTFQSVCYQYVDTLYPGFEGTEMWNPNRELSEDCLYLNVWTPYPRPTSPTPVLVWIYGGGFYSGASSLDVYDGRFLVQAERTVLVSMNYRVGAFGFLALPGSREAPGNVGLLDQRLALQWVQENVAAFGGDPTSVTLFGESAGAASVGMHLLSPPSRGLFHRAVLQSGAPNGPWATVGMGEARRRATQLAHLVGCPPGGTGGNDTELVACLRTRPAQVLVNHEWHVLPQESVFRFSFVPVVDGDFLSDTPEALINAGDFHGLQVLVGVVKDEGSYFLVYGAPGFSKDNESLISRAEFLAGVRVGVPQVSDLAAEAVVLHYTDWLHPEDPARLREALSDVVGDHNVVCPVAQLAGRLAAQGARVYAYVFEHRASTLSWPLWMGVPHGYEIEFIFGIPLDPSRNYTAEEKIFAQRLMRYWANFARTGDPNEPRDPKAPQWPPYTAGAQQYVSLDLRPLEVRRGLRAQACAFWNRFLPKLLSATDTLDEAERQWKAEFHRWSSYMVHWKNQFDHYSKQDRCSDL
Cholinesterase, sequence (P81908 whole entry): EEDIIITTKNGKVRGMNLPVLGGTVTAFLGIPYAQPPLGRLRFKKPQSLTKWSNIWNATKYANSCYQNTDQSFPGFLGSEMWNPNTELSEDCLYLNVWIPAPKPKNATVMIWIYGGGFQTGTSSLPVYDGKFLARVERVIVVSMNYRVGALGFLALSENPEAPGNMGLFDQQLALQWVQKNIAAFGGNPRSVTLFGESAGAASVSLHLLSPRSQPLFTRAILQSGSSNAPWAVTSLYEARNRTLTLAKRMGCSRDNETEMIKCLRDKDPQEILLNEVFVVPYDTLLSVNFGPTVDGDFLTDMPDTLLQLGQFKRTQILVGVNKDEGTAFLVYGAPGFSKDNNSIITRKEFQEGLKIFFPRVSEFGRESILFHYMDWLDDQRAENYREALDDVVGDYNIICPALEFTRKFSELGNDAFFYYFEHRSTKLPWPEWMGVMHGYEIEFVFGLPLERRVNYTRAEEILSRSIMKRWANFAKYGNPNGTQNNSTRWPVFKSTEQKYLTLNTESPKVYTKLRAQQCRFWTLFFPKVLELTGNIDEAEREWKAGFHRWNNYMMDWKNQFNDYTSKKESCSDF
Acetylcholinesterase (Electrophorus electricus, UniProt O42275), sequence (O42275 whole entry): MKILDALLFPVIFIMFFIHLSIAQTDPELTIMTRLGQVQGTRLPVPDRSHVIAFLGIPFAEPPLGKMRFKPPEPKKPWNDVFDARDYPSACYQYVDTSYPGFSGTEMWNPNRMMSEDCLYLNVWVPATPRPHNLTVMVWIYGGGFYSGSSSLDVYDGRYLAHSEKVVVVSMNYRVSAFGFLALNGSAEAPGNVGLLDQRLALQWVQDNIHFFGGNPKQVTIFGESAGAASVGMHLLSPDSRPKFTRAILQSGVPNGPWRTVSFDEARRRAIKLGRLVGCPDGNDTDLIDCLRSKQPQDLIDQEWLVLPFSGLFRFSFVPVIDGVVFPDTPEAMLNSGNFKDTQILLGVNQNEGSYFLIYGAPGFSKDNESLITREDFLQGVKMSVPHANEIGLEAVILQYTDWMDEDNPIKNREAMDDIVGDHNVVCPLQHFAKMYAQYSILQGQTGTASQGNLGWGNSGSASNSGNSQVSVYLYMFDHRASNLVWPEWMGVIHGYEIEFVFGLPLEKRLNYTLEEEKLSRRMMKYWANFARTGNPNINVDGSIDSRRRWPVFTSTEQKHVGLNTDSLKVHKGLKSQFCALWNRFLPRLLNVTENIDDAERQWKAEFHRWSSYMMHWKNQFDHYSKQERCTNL
Amyloid-beta precursor protein (Homo sapiens), sequence (P05067 whole entry): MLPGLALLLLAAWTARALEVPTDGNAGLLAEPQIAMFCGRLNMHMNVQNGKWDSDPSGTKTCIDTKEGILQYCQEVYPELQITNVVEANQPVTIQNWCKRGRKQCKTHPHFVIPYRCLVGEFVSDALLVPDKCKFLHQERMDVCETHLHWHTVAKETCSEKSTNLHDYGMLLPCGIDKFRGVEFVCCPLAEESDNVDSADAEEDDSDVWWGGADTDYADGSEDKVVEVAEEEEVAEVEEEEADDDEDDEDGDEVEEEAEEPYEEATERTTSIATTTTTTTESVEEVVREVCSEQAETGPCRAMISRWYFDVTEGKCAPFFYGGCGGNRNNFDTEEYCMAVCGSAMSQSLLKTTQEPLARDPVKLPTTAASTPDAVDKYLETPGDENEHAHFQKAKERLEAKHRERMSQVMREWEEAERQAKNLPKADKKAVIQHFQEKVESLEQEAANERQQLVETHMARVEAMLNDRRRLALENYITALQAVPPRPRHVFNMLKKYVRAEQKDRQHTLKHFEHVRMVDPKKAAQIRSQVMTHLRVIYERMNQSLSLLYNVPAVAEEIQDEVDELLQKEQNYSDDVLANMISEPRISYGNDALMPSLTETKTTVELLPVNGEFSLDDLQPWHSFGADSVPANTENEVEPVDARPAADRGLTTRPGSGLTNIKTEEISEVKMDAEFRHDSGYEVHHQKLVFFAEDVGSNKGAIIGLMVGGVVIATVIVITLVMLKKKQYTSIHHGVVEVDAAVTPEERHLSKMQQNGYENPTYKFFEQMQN
Acetylcholinesterase (Electrophorus electricus), sequence (O42275 24-633 limits assumed): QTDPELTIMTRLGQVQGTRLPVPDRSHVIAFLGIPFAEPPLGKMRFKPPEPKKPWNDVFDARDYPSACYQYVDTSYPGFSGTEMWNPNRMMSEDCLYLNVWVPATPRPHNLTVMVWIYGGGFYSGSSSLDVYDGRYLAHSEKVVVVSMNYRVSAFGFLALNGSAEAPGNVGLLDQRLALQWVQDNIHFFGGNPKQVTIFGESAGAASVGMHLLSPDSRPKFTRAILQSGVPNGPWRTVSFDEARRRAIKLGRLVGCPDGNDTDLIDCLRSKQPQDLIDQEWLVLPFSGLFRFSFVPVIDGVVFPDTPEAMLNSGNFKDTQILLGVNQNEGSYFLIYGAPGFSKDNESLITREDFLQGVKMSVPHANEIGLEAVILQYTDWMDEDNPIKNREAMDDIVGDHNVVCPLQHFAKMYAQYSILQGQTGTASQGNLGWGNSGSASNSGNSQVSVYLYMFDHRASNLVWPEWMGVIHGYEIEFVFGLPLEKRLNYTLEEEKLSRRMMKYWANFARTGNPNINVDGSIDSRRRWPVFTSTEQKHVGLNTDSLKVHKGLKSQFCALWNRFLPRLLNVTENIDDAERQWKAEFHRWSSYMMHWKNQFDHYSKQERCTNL

Structure (SMILES)	Papp (in vitro) [×10⁻⁶ cm/s]	IC50 (Cholinesterase) [nM]	inhibition [1] [%]	IC50 (Acetylcholinesterase [2]) [nM]	IC50 (Acetylcholinesterase [4]) [nM]	also measured
Clc1cccc(Cl)c1N=C1NCCN1 [CLONIDINE]	3.8	–	–	–	–	–
COC(=O)c1cc2c(cn1)[nH]c1ccccc12 [BETA-CCM]	–	> 100000	22.1	63000	–	–
CC(C)(C)OC(=O)N1Cc2[nH]c3ccccc3c2C[C@H]1C(=O)NCCCCCCNc1c2c(nc3ccccc13)CCCC2	5.81	7.5	52.4	141	187	Retention_time [3]: 17.683 min
CC1N[C@H](C(=O)NCCCCCCNc2c3c(nc4ccccc24)CCCC3)Cc2c1[nH]c1ccccc21 (stereo not given in full)	–	240	48.6	156	203	–
O=C(NCCCCCCNc1c2c(nc3ccccc13)CCCC2)[C@@H]1Cc2c([nH]c3ccccc23)CN1	5.6	39.8	65.8	21.6	63.2	Activity [5]: Active; inhibition [6]: Active; Activity [7]: 73.67%; Retention_time [8]: 7.932 min; Activity (PC-12): Active
CCc1nc(C(=O)NCCCCCCNc2c3c(nc4ccccc24)CCCC3)cc2c1[nH]c1ccccc12	4.97	96.9	44.6	51.7	98.2	Retention_time [9]: 10.991 min
O=C(NCCCCCCNc1c2c(nc3ccccc13)CCCC2)c1cc2c(cn1)[nH]c1ccccc12	5.36	41.3	41.2	32.4	91.8	Retention_time [3]: 15.899 min
CC(=O)[C@H]1CC[C@H]2[C@@H]3CCC4=CC(=O)CC[C@]4(C)[C@H]3CC[C@]12C [PROGESTERONE]	4.14	–	–	–	–	–
CC1c2[nH]c3ccccc3c2C[C@@H](C(=O)NCCCCCCNc2c3c(nc4ccccc24)CCCC3)N1C(=O)OC(C)(C)C (stereo not given in full)	–	22.3	42.3	389	526	Retention_time [10]: 8.219 min
Cc1nc(C(=O)NCCCCNc2c3c(nc4ccccc24)CCCC3)cc2c1[nH]c1ccccc12	–	158	39.3	268	325	Retention_time [11]: 10.988 min
CC(=O)N[C@@H](Cc1c[nH]c2ccccc12)C(=O)NCCCCCCNc1c2c(nc3ccccc13)CCCC2	–	6.2	61.4	115	153	Retention_time [3]: 4.642 min
Cc1nc(C(=O)NCCCCCCCCCCNc2c3c(nc4ccccc24)CCCC3)cc2c1[nH]c1ccccc12	–	364	38.8	783	–	Retention_time [12]: 7.918 min
NCCc1ccc(O)c(O)c1 [DOPAMINE]	0.15	–	–	–	–	–
O=C(NCCCCCCNc1c2c(nc3ccccc13)CCCC2)c1cc2c([nH]c3ccccc32)c(-c2ccc(F)cc2)n1	–	205	29.7	230	306	Retention_time [12]: 5.973 min
CC(C)(C)OC(=O)N[C@@H](Cc1c[nH]c2ccccc12)C(=O)NCCCCCCNc1c2c(nc3ccccc13)CCCC2	5.52	4.3	62.1	67.3	116	Retention_time [10]: 4.417 min
Cc1nc(C(=O)NCCCCCCCCNc2c3c(nc4ccccc24)CCCC3)cc2c1[nH]c1ccccc12	–	245	36.6	107	153	Retention_time [10]: 7.963 min
N[C@@H](Cc1c[nH]c2ccccc12)C(=O)NCCCCCCNc1c2c(nc3ccccc13)CCCC2	4.45	10.6	66.3	51.6	96.3	Retention_time [8]: 5.426 min; Activity (PC-12): Active
COc1ccc(-c2nc(C(=O)NCCCCCCNc3c4c(nc5ccccc35)CCCC4)cc3c2[nH]c2ccccc23)cc1	–	329	25.2	97.7	149	Retention_time [12]: 5.664 min
Cc1nc(C(=O)NCCCCCCNc2c3c(nc4ccccc24)CCCC3)cc2c1[nH]c1ccccc12	–	93.6	41.5	40.6	92.6	Retention_time [3]: 13.685 min
CN1C(C(=O)Nc2ccccn2)=C(O)c2ccccc2S1(=O)=O [PIROXICAM]	1.2	–	–	–	–	–
Cc1nc(C(=O)NCCNc2c3c(nc4ccccc24)CCCC3)cc2c1[nH]c1ccccc12	–	539	42.4	485	–	Retention_time [11]: 10.74 min
O=C(NCCCCCCNc1c2c(nc3ccccc13)CCCC2)c1cc2c([nH]c3ccccc32)c(-c2ccccc2)n1	–	129	26.1	127	159	Retention_time [9]: 23.485 min
